Measured values reported in the CheMixHub viscosity set.

Assay: xn = mol fraction of the nth substance listed

CCCCCCCCCC(=O)OC + CCCCO
viscosity [mPa·s], 100 kPa
Details	293.15 K	298.15 K	303.15 K	308.15 K	313.15 K	318.15 K	323.15 K
x1 = 0.09981	2.423	2.148	1.914	1.709	1.538	1.386	1.254
x1 = 0.1	–	2.153	1.921	1.715	1.537	1.384	–
x1 = 0.2	–	1.948	1.745	1.569	1.419	–	–
x1 = 0.2003	2.159	1.939	1.74	1.566	1.418	1.287	1.173
x1 = 0.3	–	1.841	1.656	1.504	1.359	–	–
x1 = 0.3001	2.041	1.827	1.646	1.489	1.353	1.235	1.13
x1 = 0.3993	1.973	1.773	1.602	1.454	1.326	1.214	1.116
x1 = 0.4	–	1.794	1.616	1.464	1.333	–	–
x1 = 0.5	–	1.765	1.597	1.452	1.332	–	–
x1 = 0.501	1.95	1.755	1.59	1.446	1.322	1.213	1.117
x1 = 0.6001	–	1.77	1.6	1.458	1.331	–	–
x1 = 0.6002	1.944	1.751	1.589	1.448	1.325	1.218	1.124
x1 = 0.6999	–	1.779	1.613	1.471	1.347	–	–
x1 = 0.7028	1.958	1.767	1.603	1.463	1.341	1.234	1.14
x1 = 0.7953	1.986	1.793	1.629	1.487	1.364	1.257	1.163
x1 = 0.7987	–	1.808	1.646	1.497	1.372	–	–
x1 = 0.8967	–	1.846	1.678	1.532	1.407	–	–
x1 = 0.8999	2.03	1.835	1.668	1.524	1.399	1.29	1.194

O=[N+]([O-])[O-].[Na+] + O
viscosity [mPa·s]
Details	293.15 K	298.15 K	303.15 K	308.15 K	313.15 K	318.15 K
101 kPa, x1 = 0.0371	–	–	–	–	0.78	–
101 kPa, x1 = 0.0564	–	1.19	–	–	0.89	–
101 kPa, x1 = 0.0768	–	1.3	–	–	1.02	–
101 kPa, x1 = 0.0978	–	1.63	–	–	1.2	–
101 kPa, x1 = 0.12	–	1.92	–	–	1.41	–
101.1 kPa, x1 = 0.0001893	1.003	0.892	0.799	0.721	0.654	0.598
101.1 kPa, x1 = 0.0007456	1.004	0.893	0.8	0.722	0.655	0.6
101.1 kPa, x1 = 0.0018	1.007	0.895	0.803	0.725	0.658	0.602
101.1 kPa, x1 = 0.007199	1.02	0.909	0.817	0.738	0.662	0.608
101.1 kPa, x1 = 0.01603	1.032	0.923	0.83	0.75	0.676	0.618
101.1 kPa, x1 = 0.0211	1.052	0.934	0.836	0.754	0.682	0.623
101.3 kPa, x1 = 0.0009	1.005	0.8932	0.8005	0.7222	–	0.5989
101.3 kPa, x1 = 0.0018	1.007	0.8955	0.8028	0.7247	–	0.6018
101.3 kPa, x1 = 0.00893	1.025	0.915	0.8225	0.7446	–	0.6207
101.3 kPa, x1 = 0.0177	1.058	0.9465	0.853	0.7732	–	0.6476
101.3 kPa, x1 = 0.03478	1.15	1.032	0.9323	0.8482	–	0.7131
101.3 kPa, x1 = 0.05127	1.275	1.144	1.034	0.9397	–	0.7913
101.3 kPa, x1 = 0.06722	1.418	1.271	1.148	1.043	–	0.8782
101.3 kPa, x1 = 0.09755	1.796	1.604	1.444	1.309	–	1.097
101.3 kPa, x1 = 0.126	2.231	1.983	1.778	1.606	–	1.338
101.33 kPa, x1 = 0.000905	–	–	–	0.7324	0.6609	–
101.33 kPa, x1 = 0.002718	–	–	–	0.7422	0.6695	–
101.33 kPa, x1 = 0.00453	–	–	–	0.7525	0.6763	–
101.33 kPa, x1 = 0.006344	–	–	–	0.7606	0.6855	–
101.33 kPa, x1 = 0.008159	–	–	–	0.7705	0.6992	–
101.33 kPa, x2 = 0.84	3.04	–	–	–	–	–
101.33 kPa, x2 = 0.86	2.507	–	–	–	–	–
101.33 kPa, x2 = 0.88	2.15	–	–	–	–	–
101.33 kPa, x2 = 0.89	2.088	–	–	–	–	–
101.33 kPa, x2 = 0.91	1.752	–	–	–	–	–
101.33 kPa, x2 = 0.92	1.502	–	–	–	–	–
101.33 kPa, x2 = 0.94	1.384	–	–	–	–	–
